Measured values taken from ChEMBL document CHEMBL3297692, “Discovery of naphthyl-fused 5-membered lactams as a new class of m1 positive allosteric modulators” (ACS Med Chem Lett, 2014).
In brackets after ≈: the same amount, converted by molar mass. Activity calls are given as the source filed them. No cut-off for these calls is given here.

Tests used:
[1] = tested on: Plasma; assay: Plasma concentration in Sprague-Dawley rat at 10 mg/kg, po; format: ADME, organism-based; set-up: dose 10 mg/kg, route oral; conditions: in vivo
[2] = Solubility of the compound at pH 2; format: physicochemical; conditions: buffer
[3] = target: T1, Muscarinic acetylcholine receptor M1 (Homo sapiens) (UniProt P11229); assay: Positive allosteric modulation of human mAChR1 expressed in CHONFAT cells assessed as potention of acetylcholine-induced effect incubated for 4 mins prior to acetylcholine addition measured after 4 mins by FLIPR assay; format: cell-based
T1 sequence (whole entry): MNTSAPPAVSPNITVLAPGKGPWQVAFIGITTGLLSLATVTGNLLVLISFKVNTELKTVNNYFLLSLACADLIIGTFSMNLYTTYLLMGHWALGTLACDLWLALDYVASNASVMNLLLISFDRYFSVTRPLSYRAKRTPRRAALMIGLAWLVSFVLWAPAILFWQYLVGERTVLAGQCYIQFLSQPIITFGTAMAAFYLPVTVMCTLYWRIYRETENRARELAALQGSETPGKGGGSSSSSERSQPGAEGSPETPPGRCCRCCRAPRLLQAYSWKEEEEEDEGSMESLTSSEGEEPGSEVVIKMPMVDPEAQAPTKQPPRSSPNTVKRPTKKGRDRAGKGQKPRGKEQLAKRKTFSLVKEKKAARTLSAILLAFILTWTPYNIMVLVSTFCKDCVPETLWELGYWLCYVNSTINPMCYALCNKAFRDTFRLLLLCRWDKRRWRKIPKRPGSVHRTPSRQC

[4] = target: MDR1 (ABCB1, P-glycoprotein) (Homo sapiens, UniProt P08183); assay: Effect on human MDR1-mediated drug transport assessed as efflux ratio of permeability from basolateral to apical side over apical to basolateral side; format: ADME; conditions: not told
MDR1 (ABCB1, P-glycoprotein), sequence (P08183 whole entry): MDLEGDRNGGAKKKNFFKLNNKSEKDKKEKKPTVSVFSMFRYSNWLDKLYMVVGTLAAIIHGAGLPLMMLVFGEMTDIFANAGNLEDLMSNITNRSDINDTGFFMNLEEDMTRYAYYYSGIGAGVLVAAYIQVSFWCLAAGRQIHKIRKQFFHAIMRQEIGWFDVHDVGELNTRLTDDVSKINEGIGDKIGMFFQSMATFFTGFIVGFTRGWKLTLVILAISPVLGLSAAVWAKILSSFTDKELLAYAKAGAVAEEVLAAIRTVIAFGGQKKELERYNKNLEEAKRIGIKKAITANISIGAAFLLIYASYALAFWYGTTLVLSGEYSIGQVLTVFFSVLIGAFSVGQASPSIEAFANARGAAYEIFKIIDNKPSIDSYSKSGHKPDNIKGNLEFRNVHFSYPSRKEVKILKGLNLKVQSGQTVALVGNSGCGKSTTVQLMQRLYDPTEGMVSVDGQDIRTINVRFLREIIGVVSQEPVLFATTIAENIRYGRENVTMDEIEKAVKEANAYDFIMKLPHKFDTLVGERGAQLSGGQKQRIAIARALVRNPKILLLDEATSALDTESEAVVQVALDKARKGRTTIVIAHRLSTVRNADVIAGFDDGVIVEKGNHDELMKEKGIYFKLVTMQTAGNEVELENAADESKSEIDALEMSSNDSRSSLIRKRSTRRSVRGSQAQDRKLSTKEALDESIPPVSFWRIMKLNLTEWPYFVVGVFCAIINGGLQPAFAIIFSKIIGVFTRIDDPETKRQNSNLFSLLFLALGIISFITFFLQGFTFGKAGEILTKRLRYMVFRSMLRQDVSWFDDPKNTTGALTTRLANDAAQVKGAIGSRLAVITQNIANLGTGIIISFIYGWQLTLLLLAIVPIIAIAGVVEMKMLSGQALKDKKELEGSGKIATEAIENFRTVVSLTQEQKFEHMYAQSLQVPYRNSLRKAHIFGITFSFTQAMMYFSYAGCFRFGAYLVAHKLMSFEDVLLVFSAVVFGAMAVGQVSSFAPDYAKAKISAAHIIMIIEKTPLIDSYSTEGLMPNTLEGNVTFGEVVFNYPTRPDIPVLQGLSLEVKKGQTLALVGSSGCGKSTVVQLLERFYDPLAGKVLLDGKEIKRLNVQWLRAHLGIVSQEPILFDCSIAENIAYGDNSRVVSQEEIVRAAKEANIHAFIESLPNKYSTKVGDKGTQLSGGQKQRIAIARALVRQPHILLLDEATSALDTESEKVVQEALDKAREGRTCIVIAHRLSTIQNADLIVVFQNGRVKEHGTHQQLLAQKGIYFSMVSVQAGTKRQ

[5] = Plasma protein binding in rat by equilibrium dialysis method; format: ADME, cell-free; conditions: read-out: PPB (converted)
[6] = Solubility of the compound at pH 7; format: physicochemical; conditions: buffer
[7] = Lipophilicity, log D of the compound by HPLC analysis; format: physicochemical
[8] = Plasma protein binding in human by equilibrium dialysis method; format: ADME, cell-free; conditions: read-out: PPB (converted)
[9] = Apparent passive permeability of the compound; format: physicochemical; conditions: not told
[10] = tested on: Cerebrospinal fluid; assay: Drug uptake in cerebrospinal fluid in Sprague-Dawley rat at 10 mg/kg, po; format: ADME, organism-based; set-up: dose 10 mg/kg, route oral; conditions: in vivo, read-out: Drug uptake
[11] = tested on: Nucleic Acid; assay: Ratio of drug uptake in Sprague-Dawley rat cerebrospinal fluid to unbound plasma level in rat; format: ADME
[12] = tested on: MDR1a; assay: Effect on rat MDR1a-mediated drug transport assessed as efflux ratio of permeability from basolateral to apical side over apical to basolateral side; format: ADME; conditions: not told
[13] = tested on: Mus musculus; assay: Reversal of scopolamine-induced memory deficit in ip dosed B6SJL mouse contextual fear conditioning model at 1 uM plasma level after 30 mins relative to vehicle-treated control; format: functional, organism-based
[14] = Volume of distribution at steady state in dog at 0.125 mg/kg, iv; format: ADME, organism-based, Canis lupus familiaris; set-up: dose 0.125 mg/kg, route intravenous; conditions: in vivo, read-out: Vdss
[15] = tested on: Plasma; assay: Plasma concentration in B6SJL mouse contextual fear conditioning model at 1 mg/kg, ip; format: ADME, organism-based; set-up: dose 1 mg/kg, route intraperitoneal; conditions: in vivo
[16] = Half life in rat at 2 mg/kg, iv; format: ADME, organism-based; set-up: dose 2 mg/kg, route intravenous; conditions: in vivo
[17] = target: T1, Muscarinic acetylcholine receptor M1 (Homo sapiens); assay: Potentiation of human mAChR1 expressed in CHONFAT cells assessed as fold shift acetylcholine response curve incubated for 4 mins prior to acetylcholine addition measured after 4 mins relative to control; format: cell-based
[18] = tested on: Mus musculus; assay: Reversal of scopolamine-induced memory deficit in B6SJL mouse contextual fear conditioning model at 1 mg/kg, ip after 30 mins relative to vehicle-treated control; format: functional, organism-based; set-up: dose 1 mg/kg
[19] = Volume of distribution at steady state in rat at 2 mg/kg, iv; format: ADME, organism-based; set-up: dose 2 mg/kg, route intravenous; conditions: in vivo, read-out: Vdss
[20] = Fraction unbound in human plasma by equilibrium dialysis method; format: ADME, cell-free
[21] = target: T1, Muscarinic acetylcholine receptor M1 (Homo sapiens); assay: Potentiation of human mAChR1 expressed in CHONFAT cells assessed as fold shift in acetylcholine response curve at 1.8 uM incubated for 4 mins prior to acetylcholine addition measured after 4 mins relative to control; format: cell-based
[22] = Fraction unbound in rat plasma by equilibrium dialysis method; format: ADME, cell-free
[23] = Clearance in rat at 2 mg/kg, iv; format: ADME, organism-based; set-up: dose 2 mg/kg, route intravenous; conditions: in vivo
[24] = Half life in dog at 0.125 mg/kg, iv; format: ADME, organism-based, Canis lupus familiaris; set-up: dose 0.125 mg/kg, route intravenous; conditions: in vivo
[25] = Clearance in dog at 0.125 mg/kg, iv; format: ADME, organism-based, Canis lupus familiaris; set-up: dose 0.125 mg/kg, route intravenous; conditions: in vivo

`CC1c2c(cc(CN3CCC(C#N)(c4ccccn4)CC3)c3ccccc23)C(=O)N1[C@H]1CCCC[C@@H]1O` (mixture of isomers) showed a concentration [1] of 1120 nM, a solubility [2] of 198 µM and an IP [3] of 19 nM. It also gave an efflux ratio [4] of 1.7, a fraction unbound [5] of 0.014 and a solubility [6] of 19 µM. The logD [7] was 3.4, the fraction unbound [8] was 0.06 and the Papp [9] was 29 ×10⁻⁶ cm/s. For the same molecule, the concentration [10] was 4.7 nM, the Ratio [11] was 0.3 and the efflux ratio [12] was 4.1.
For `N#CC1(c2ccccn2)CCN(Cc2cc(C(=O)O)c(=O)n3ccccc23)CC1`, the Activity [13] was “Active”.
`N#CC1(c2ccccn2)CCN(Cc2cc3c(c4ccccc24)CN([C@H]2CCCC[C@@H]2O)C3=O)CC1` gave a concentration [1] of 5180 nM, a solubility [2] of 195 µM (≈ 93.7 µg/mL) and an IP [3] of 15 nM. The Vd [14] was 1.2 L/kg, the concentration [15] was 1500 nM and the half-life [16] was 12 h. For the same molecule, the Activity [17] was “Dose-dependent effect”, the Activity [18] was “Active” and the Vd [19] was 2.8 L/kg. For the same molecule, the efflux ratio [4] was 3.2, the fraction unbound [5] was 0.05 and the solubility [6] was 11 µM (≈ 5.29 µg/mL). For the same molecule, the fraction unbound [20] was 0.08, the logD [7] was 2.9 and the fold change (FC) [21] was 40. For the same molecule, the fraction unbound [8] was 0.08, the fraction unbound [22] was 0.05 and the Papp [9] was 34 ×10⁻⁶ cm/s. The clearance [23] was 4.1 mL/min/kg, the half-life [24] was 6.7 h and the concentration [10] was 134 nM. For the same molecule, the clearance [25] was 2.1 mL/min/kg, the Ratio [11] was 0.51 and the efflux ratio [12] was 4.3.
Work on `N#CC1(c2ccccn2)CCN(Cc2cc3c(c4ccccc24)CN(c2ccccc2F)C3=O)CC1` yielded an IP [3] of 290 nM.
For `N#CC1(c2ccccn2)CCN(Cc2cc3c(c4ccccc24)CN([C@@H]2CCCC[C@H]2O)C3=O)CC1`, the IP [3] was 540 nM.
For `N#CC1(c2cnccn2)CCN(Cc2cc3c(c4ccccc24)CN([C@H]2CCCC[C@@H]2O)C3=O)CC1`, the IP [3] was 31 nM, the efflux ratio [4] was 8 and the fraction unbound [5] was 0.142. It also gave a fraction unbound [8] of 0.086, a Papp [9] of 31 ×10⁻⁶ cm/s and an efflux ratio [12] of 11.
Work on `N#CC1(c2ccccn2)CCN(Cc2cc3c(c4ccccc24)CN([C@H]2CCCC[C@H]2O)C3=O)CC1` yielded an IP [3] of 150 nM.
Molecule `N#CC1(c2ccccn2)CCN(Cc2cc3c(c4ccccc24)CN(C2CCOCC2)C3=O)CC1` has an IP [3] of 280 nM.
In the case of `N#CC1(c2cccnc2)CCN(Cc2cc3c(c4ccccc24)CN([C@H]2CCCC[C@@H]2O)C3=O)CC1`, the IP [3] was 22 nM and the Papp [9] was 32 ×10⁻⁶ cm/s.
In the case of `Cc1ccnc(C2(C#N)CCN(Cc3cc4c(c5ccccc35)CN([C@H]3CCCC[C@@H]3O)C4=O)CC2)c1`, the concentration [1] was 2340 nM, the solubility [2] was 179 µM (≈ 88.5 µg/mL) and the IP [3] was 16 nM. It also gave an efflux ratio [4] of 1.3, a fraction unbound [5] of 0.007 and a solubility [6] of 3 µM (≈ 1.48 µg/mL). It also gave a logD [7] of 3.3, a fraction unbound [8] of 0.006 and a Papp [9] of 22 ×10⁻⁶ cm/s. For the same molecule, the concentration [10] was 8.6 nM, the Ratio [11] was 0.52 and the efflux ratio [12] was 4.5.
Molecule `N#CC1(c2ccncc2)CCN(Cc2cc3c(c4ccccc24)CN([C@H]2CCCC[C@@H]2O)C3=O)CC1` has an IP [3] of 22 nM, an efflux ratio [4] of 26 and a Papp [9] of 30 ×10⁻⁶ cm/s. For the same molecule, the efflux ratio [12] was 49.
Work on `N#CC1(c2ccccn2)CCN(Cc2cc3c(c4ccccc24)CN(C2CCCOC2)C3=O)CC1` (centres undefined) yielded an IP [3] of 1500 nM.
`N#CC1(c2ccncn2)CCN(Cc2cc3c(c4ccccc24)CN([C@H]2CCCC[C@@H]2O)C3=O)CC1` gave an IP [3] of 17 nM, an efflux ratio [4] of 6 and a fraction unbound [5] of 0.07. It also gave a fraction unbound [8] of 0.09, a Papp [9] of 29 ×10⁻⁶ cm/s and an efflux ratio [12] of 20.
With `N#CC1(c2cccnn2)CCN(Cc2cc3c(c4ccccc24)CN([C@H]2CCCC[C@@H]2O)C3=O)CC1` the IP [3] was 27 nM, the fraction unbound [5] was 0.146 and the fraction unbound [8] was 0.144. The Papp [9] was 27 ×10⁻⁶ cm/s.
With `N#CC1(c2ccccc2)CCN(Cc2cc3c(c4ccccc24)CN([C@H]2CCCC[C@@H]2O)C3=O)CC1` the IP [3] was 83 nM, the efflux ratio [4] was 1.7 and the fraction unbound [5] was 0.006. For the same molecule, the fraction unbound [8] was 0.011, the Papp [9] was 23 ×10⁻⁶ cm/s and the efflux ratio [12] was 3.4.
Work on `Cc1cccc(C2(C#N)CCN(Cc3cc4c(c5ccccc35)CN([C@H]3CCCC[C@@H]3O)C4=O)CC2)n1` yielded an IP [3] of 27 nM, an efflux ratio [4] of 1.5 and a fraction unbound [5] of 0.01. It also gave a fraction unbound [8] of 0.01, a Papp [9] of 28 ×10⁻⁶ cm/s and an efflux ratio [12] of 3.1.
In the case of `O=C1c2cc(CN3CCC(F)(c4ccccn4)CC3)c3ccccc3c2CN1[C@H]1CCCC[C@@H]1O`, the IP [3] was 58 nM, the efflux ratio [4] was 2.1 and the fraction unbound [5] was 0.015. The fraction unbound [8] was 0.03, the Papp [9] was 34 ×10⁻⁶ cm/s and the efflux ratio [12] was 2.7.
